The text below walks through data of patent US4324800A, “Novel benzylalcohol derivatives and processes for preparing same” (Tanabe Seiyaku Co., Ltd., priority 1980, dated 1982).

The test system of the experiment is ventricular contractile force. Description: Ventricular contractile force in anesthetized open-chest dogs (strain gauge on left ventricle), i.v. injection into left saphenous vein. Format: in vivo. The note with it: for ED (30% increase): Canis lupus familiaris, iv, male dogs, anesthetized, injected into left saphenous vein, read-out: Dose which induces about 30% increase in the ventricular contractile force; for t 1/2: period of time in decreasing the cardiac contractile force to 50% of its maximum value: male dogs 11 to 13 kg, sodium pentobarbital anesthesia, i.v., dose inducing about 30% increase in ventricular contractile force, ± S.E. The method, then:
Male dogs weighing about 11 to 13 kg were anesthetized with sodium pentobarbital (30 mg/kg, i.v.). Under artificial respiration, the heart was exposed by thoractomy, and a calibrated strain gauge was attached to the wall of the left ventricle for oscillographical measurement of the ventricular contractile force. The heart rate was recorded by cardiotachography, triggered by arterial pulse. A test compound was injected into the left saphenous vein at a dose which induces about 30% increase in the ventricular contractile force.
*:Period of time in decreasing the cardiac contractile force to 50% of it

Regarding `COc1ccc(CCNCC(O)c2ccc(OC(=O)c3ccc(C)cc3)cc2)cc1OC` (stereo not drawn) [α-(3,4-dimethoxyphenethylaminomethyl)-4-p-toluoyloxybenzylalcohol], the ED (30% increase) was 0.04 mg/kg and the “t 1/2: period of time in decreasing the cardiac contractile force to 50% of its maximum value” turned out to be 1495 ± 25 s.
Consider `COc1ccc(CCNCC(O)c2ccc(OC(=O)c3ccccc3)cc2)cc1OC` (stereo not drawn) [α-(3,4-dimethoxyphenethylaminomethyl)-4-benzoyloxybenzylalcohol], for which the ED (30% increase) turned out to be 0.039 mg/kg and the “t 1/2: period of time in decreasing the cardiac contractile force to 50% of its maximum value” is 1453 ± 43 s.
`COc1ccc(CCNCC(O)c2ccc(OC(=O)C(C)(C)C)cc2)cc1OC` (stereo not drawn) [α-(3,4-dimethoxyphenethylaminomethyl)-4-pivaloyloxybenzylalcohol]: the ED (30% increase) came to 0.037 mg/kg and the “t 1/2: period of time in decreasing the cardiac contractile force to 50% of its maximum value” came to 1232 ± 71 s.
